This passage reports IC50 results from patent US20240002391A1, “4-ALKOXYPYRROLO[2,1-F][1,2,4]TRIAZINES AND PREPARATION AND USES THEREOF” (BioSplice Therapeutics, Inc., priority 2022, published 2024).

This experiment deals with recombinant DYRK1A kinase (Homo sapiens (Human), UniProt Q13627). The experiment can be described thus: DYRK1A kinase assay (Ser/Thr 18 peptide Z-lyte FRET). It is filed as biochemical. As to conditions: DYRK1A kinase activity, Z-lyte Ser/Thr 18 peptide, 15 μM ATP; method text calls the value IC50; read-out: EC50 (the source's name). The essentials: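 Steps: combine 0.25 μg/mL kinase, 15 μM ATP and 4 μM peptide with test compound; incubate 1 h at room temperature; add diluted development reagent for another hour; read coumarin and fluorescein emission at Ex 400. The emission ratio yields percent phosphorylation, from which IC50 is derived.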
Consider `COc1nc(N[C@@H]2CCN(C(C)=O)CC2(F)F)nn2ccc(-c3ccc4ncccc4c3)c12` [Compound 1048, (R)-1-(3,3-Difluoro-4-((4-methoxy-5-(quinolin-6-yl)pyrrolo[2,1-f][1,2,4]triazin-2-yl)amino)piperidin-1-yl)ethan-1-one], for which the IC50 was found to be 1.3 nM.

Consider `COc1nc(N[C@@H]2CCC(=O)N(C)C2)nn2ccc(-c3ccc4ncccc4c3)c12` [Compound 1049, (R)-5-((4-Methoxy-5-(quinolin-6-yl)pyrrolo[2,1-f][1,2,4]triazin-2-yl)amino)-1-methylpiperidin-2-one], for which the IC50 came to 4.9 nM.

As to `COc1nc(N[C@@H]2CCCOC2)nn2ccc(-c3ccc4ncccc4c3)c12` [Compound 1050, (R)-4-Methoxy-5-(quinolin-6-yl)-N-(tetrahydro-2H-pyran-3-yl)pyrrolo[2,1-f][1,2,4]triazin-2-amine], the IC50 was 13.5 nM.

Regarding `COc1nc(N[C@H]2C[C@@](C)(NC(C)=O)C2)nn2cc(F)c(-c3ccc4ncccc4c3)c12` [Compound 1052, N-(cis-3-((6-Fluoro-4-methoxy-5-(quinolin-6-yl)pyrrolo[2,1-f][1,2,4]triazin-2-yl)amino)-1-methylcyclobutyl)acetamide], the IC50 stood at 4.5 nM.

In the case of `COc1nc(N[C@H]2CC[C@@H](NC(C)=O)CC2)nn2cc(F)c(-c3ccc4ncccc4c3)c12` [Compound 1054, N-(cis-4-((6-Fluoro-4-methoxy-5-(quinolin-6-yl)pyrrolo[2,1-f][1,2,4]triazin-2-yl)amino)cyclohexyl)acetamide], the IC50 came out at 2 nM.

On to `COc1nc(N[C@H]2CC[C@](C)(O)CC2)nn2cc(F)c(-c3ccc4ncccc4c3)c12` [Compound 1056, trans-4-((6-Fluoro-4-methoxy-5-(quinolin-6-yl)pyrrolo[2,1-f][1,2,4]triazin-2-yl)amino)-1-methylcyclohexan-1-ol], for which the IC50 was found to be 1.1 nM.

Turning to `COc1nc(N[C@H]2CCN(C)C[C@H]2F)nn2cc(F)c(-c3ccc4ncccc4c3)c12` [Compound 1057, 6-Fluoro-N-((3R,4S)-3-fluoro-1-methylpiperidin-4-yl)-4-methoxy-5-(quinolin-6-yl)pyrrolo[2,1-f][1,2,4]triazin-2-amine], the IC50 stood at 1.7 nM.

For the compound `COc1nc(N[C@H]2CCN(CC(C)(C)O)C[C@H]2F)nn2cc(F)c(-c3ccc4ncccc4c3)c12` [Compound 1058, 1-((3R,4S)-3-Fluoro-4-((6-fluoro-4-methoxy-5-(quinolin-6-yl)pyrrolo[2,1-f][1,2,4]triazin-2-yl)amino)piperidin-1-yl)-2-methylpropan-2-ol], the IC50 turned out to be 2.3 nM.

For the compound `COc1nc(N[C@H]2CCN(C3COC3)C[C@H]2F)nn2cc(F)c(-c3ccc4ncccc4c3)c12` [Compound 1059, 6-Fluoro-N-((3R,4S)-3-fluoro-1-(oxetan-3-yl)piperidin-4-yl)-4-methoxy-5-(quinolin-6-yl)pyrrolo[2,1-f][1,2,4]triazin-2-amine], the IC50 was 1.9 nM.

With `COc1nc(N[C@H]2CCN(C(C)=O)C[C@H]2F)nn2cc(F)c(-c3ccc4ncccc4c3)c12` [Compound 1061, 1-((3R,4S)-3-Fluoro-4-((6-fluoro-4-methoxy-5-(quinolin-6-yl)pyrrolo[2,1-f][1,2,4]triazin-2-yl)amino)piperidin-1-yl)ethan-1-one], the IC50 was 0.9 nM.

Take `COc1nc(N[C@@H]2CCN(C3COC3)CC2(F)F)nn2cc(F)c(-c3ccc4ncccc4c3)c12` [Compound 1062, (R)—N-(3,3-Difluoro-1-(oxetan-3-yl)piperidin-4-yl)-6-fluoro-4-methoxy-5-(quinolin-6-yl)pyrrolo[2,1-f][1,2,4]triazin-2-amine]: the IC50 came to 3.7 nM.

Turning to `COc1nc(N[C@@H]2CCN(C(C)=O)CC2(F)F)nn2cc(F)c(-c3ccc4ncccc4c3)c12` [Compound 1064, (R)-1-(3,3-Difluoro-4-((6-fluoro-4-methoxy-5-(quinolin-6-yl)pyrrolo[2,1-f][1,2,4]triazin-2-yl)amino)piperidin-1-yl)ethan-1-one], the IC50 worked out at 2 nM.

Regarding `C[C@]1(O)CC[C@H](Nc2nc(OC3COC3)c3c(-c4ccc5ncccc5c4)ccn3n2)CC1` [Compound 1089, (1r,4r)-1-Methyl-4-((4-(oxetan-3-yloxy)-5-(quinolin-6-yl)pyrrolo[2,1-f][1,2,4]triazin-2-yl)amino)cyclohexan-1-ol], the IC50 was 4.5 nM.

As to `CN1CC[C@H](Nc2nc(OC3COC3)c3c(-c4ccc5ncccc5c4)ccn3n2)[C@H](F)C1` [Compound 1090, N-((3R,4S)-3-Fluoro-1-methylpiperidin-4-yl)-4-(oxetan-3-yloxy)-5-(quinolin-6-yl)pyrrolo[2,1-f][1,2,4]triazin-2-amine], the IC50 came out at 5.7 nM.

As to `CN1CC[C@@H](Nc2nc(OC3COC3)c3c(-c4ccc5ncccc5c4)ccn3n2)C(F)(F)C1` [Compound 1091, (R)—N-(3,3-Difluoro-1-methylpiperidin-4-yl)-4-(oxetan-3-yloxy)-5-(quinolin-6-yl)pyrrolo[2,1-f][1,2,4]triazin-2-amine], the IC50 came to 1.8 nM.

Regarding `COc1nc(N[C@@H]2COC[C@H]2O)nn2ccc(-c3ccc4nccnc4c3)c12` [Compound 1093, (3S,4R)-4-((4-Methoxy-5-(quinoxalin-6-yl)pyrrolo[2,1-f][1,2,4]triazin-2-yl)amino)tetrahydrofuran-3-ol], the IC50 worked out at 4.3 nM.

`CCN1CC[C@@H](Nc2nc(OC)c3c(-c4ccc5nccnc5c4)ccn3n2)C(F)(F)C1` [Compound 1095, (R)—N-(1-Ethyl-3,3-difluoropiperidin-4-yl)-4-methoxy-5-(quinoxalin-6-yl)pyrrolo[2,1-f][1,2,4]triazin-2-amine]: the IC50 is 4 nM.

With `COc1nc(N[C@@H]2CCN(C(C)=O)CC2(F)F)nn2ccc(-c3ccc4nccnc4c3)c12` [Compound 1096, (R)-1-(3,3-Difluoro-4-((4-methoxy-5-(quinoxalin-6-yl)pyrrolo[2,1-f][1,2,4]triazin-2-yl)amino)piperidin-1-yl)ethan-1-one], the IC50 came to 3 nM.

In the case of `COc1nc(N[C@@H]2CCC(=O)N(C)C2)nn2ccc(-c3ccc4nccnc4c3)c12` [Compound 1097, (R)-5-((4-Methoxy-5-(quinoxalin-6-yl)pyrrolo[2,1-f][1,2,4]triazin-2-yl)amino)-1-methylpiperidin-2-one], the IC50 was determined as 2.7 nM.

With `COc1nc(NC2CC3(CCOCC3)C2)nn2ccc(-c3ccc4nccnc4c3)c12` [Compound 1100, 4-Methoxy-5-(quinoxalin-6-yl)-N-(7-oxaspiro[3.5]nonan-2-yl)pyrrolo[2,1-f][1,2,4]triazin-2-amine], the IC50 came to 6.7 nM.

For `C[C@]1(O)CC[C@H](Nc2nc(OCC(F)F)c3c(-c4ccc5nccnc5c4)ccn3n2)CC1` [Compound 1130, (1r,4r)-4-((4-(2,2-Difluoroethoxy)-5-(quinoxalin-6-yl)pyrrolo[2,1-f][1,2,4]triazin-2-yl)amino)-1-methylcyclohexan-1-ol], the IC50 was 0.8 nM.

Turning to `CN1CC[C@@H](Nc2nc(OC3COC3)c3c(-c4ccc5nccnc5c4)ccn3n2)C(F)(F)C1` [Compound 1136, (R)—N-(3,3-Difluoro-1-methylpiperidin-4-yl)-4-(oxetan-3-yloxy)-5-(quinoxalin-6-yl)pyrrolo[2,1-f][1,2,4]triazin-2-amine], the IC50 is 3.8 nM.

Regarding `c1cnc2cc(-c3ccn4nc(NC5CC6(CCOCC6)C5)nc(OC5COC5)c34)ccc2n1` [Compound 1137, 4-(Oxetan-3-yloxy)-5-(quinoxalin-6-yl)-N-(7-oxaspiro[3.5]nonan-2-yl)pyrrolo[2,1-f][1,2,4]triazin-2-amine], the IC50 was 4.8 nM.

`c1cnc2cc(-c3ccn4nc(NC5CCC6(CC5)COC6)nc(OC5COC5)c34)ccc2n1` [Compound 1138, 4-(Oxetan-3-yloxy)-5-(quinoxalin-6-yl)-N-(2-oxaspiro[3.5]nonan-7-yl)pyrrolo[2,1-f][1,2,4]triazin-2-amine]: the IC50 worked out at 3.3 nM.

For the compound `COc1nc(N[C@H]2CC[C@](C)(O)CC2)nn2ccc(-c3ccc4ncn(CC(F)F)c4c3)c12` [Compound 1139, (1r,4r)-4-((5-(1-(2,2-Difluoroethyl)-1H-benzo[d]imidazol-6-yl)-4-methoxypyrrolo[2,1-f][1,2,4]triazin-2-yl)amino)-1-methylcyclohexan-1-ol], the IC50 came to 0.5 nM.

On to `COc1nc(N[C@@H]2CCN(C(C)=O)CC2(F)F)nn2ccc(-c3ccc4ncn(CC(F)F)c4c3)c12` [Compound 1140, (R)-1-(4-((5-(1-(2,2-Difluoroethyl)-1H-benzo[d]imidazol-6-yl)-4-methoxypyrrolo[2,1-f][1,2,4]triazin-2-yl)amino)-3,3-difluoropiperidin-1-yl)ethan-1-one], for which the IC50 stood at 1.3 nM.

As for `COc1nc(N[C@H]2CCN(C3COC3)C[C@H]2F)nn2ccc(-c3ccc4ncn(CC(F)F)c4c3)c12` [Compound 1141, 5-(1-(2,2-Difluoroethyl)-1H-benzo[d]imidazol-6-yl)-N-((3R,4S)-3-fluoro-1-(oxetan-3-yl)piperidin-4-yl)-4-methoxypyrrolo[2,1-f][1,2,4]triazin-2-amine], the IC50 was determined as 1.4 nM.

`COc1nc(N[C@H]2CCN(C3COC3)C[C@H]2F)nn2ccc(-c3cc(F)c4nc(C)n(C(C)C)c4c3)c12` [Compound 1142, N-((3R,4S)-3-Fluoro-1-(oxetan-3-yl)piperidin-4-yl)-5-(4-fluoro-1-isopropyl-2-methyl-1H-benzo[d]imidazol-6-yl)-4-methoxypyrrolo[2,1-f][1,2,4]triazin-2-amine]: the IC50 came to 2.3 nM.

For the compound `CCC(=O)N1CC[C@H](Nc2nc(OC)c3c(-c4ccc5nnn(CCF)c5c4)ccn3n2)[C@H](F)C1` [Compound 1143, 1-((3R,4S)-3-Fluoro-4-((5-(1-(2-fluoroethyl)-1H-benzo[d][1,2,3]triazol-6-yl)-4-methoxypyrrolo[2,1-f][1,2,4]triazin-2-yl)amino)piperidin-1-yl)propan-1-one], the IC50 stood at 1.8 nM.
